# Results: article PMC5573760 (Cancer Chemotherapy and Pharmacology, 2017)
# Experiments:
# [1] = clinical; conditions: male, human, in vivo; for clearance: CL (total body clearance); for Tmax: t max; for half-life: t ½ (terminal half-life)
# Protocol: (§1) All subjects gave written informed consent; the study was conducted at PRA Health Sciences (Zuidlaren, The Netherlands) in accordance with the Declaration of Helsinki and was approved by an accredited institutional ethics committee (Medisch Ethische Toetsings Commissie, Assen, The Netherlands).
# (§2) Subjects remained fasting until 2-h after the end of the infusion. Volunteers stayed in-house until 14 days after the application and subsequently urine and feces were collected for 24-h on Day 16, 20, 27 and 34 if necessary, cf. below.
# (§3) Urine was collected pre-dose, at 0–12-h and 12–24 h after the start of the infusion and thereafter over 24-h intervals on Day 2 to Day 14 as well as on Day 16, 20, 27 and 34 (±1 day). Cumulative 24-h fecal samples were collected from Day 1 (day of infusion) to Day 14 and as well as on Day 16, 20, 27 and 34 (±1 day). […] The excreted radioactivity between ambulant visits during the prolongation phase of the clinical study was calculated using interpolation to get a more realistic total excretion value of all subjects (see "Pharmacokinetic analysis").
# All samples were frozen at −70 °C and analyzed within 60 days of sample collection.
# (§4) For blood/plasma ratio determination, total radioactivity in urine and feces well as data from HPLC analysis data from radioactivity measurement by liquid scintillation counting (LSC) were considered. The amount of radioactivity recovered in the excreta (A E) was related to the administered radioactive dose to establish the radioactive balance. Arithmetic means and coefficients of variation (CV) were calculated for these percentages. […] Cumulative excretion was calculated as sum of the collection intervals. The elimination of the total radioactivity in urine and feces for time-points beyond day 14 was performed by log-linear extrapolation between analyzed time-points. Amounts of radioactivity excreted in urine and feces between two ambulant visits were calculated per interpolated day by linear interpolation of log-transformed excretion data separately per matrix (lnA E(interpolated day) = Δdays × [lnA E(Visit i + 1) − lnA E(Visit i)]/[day (Visit i + 1) − day (Visit i)] + lnA E(Visit i), with A E given as amount of radioactivity excreted in matrix per day and Δdays being the difference between the calculated day and the last available visit with A E > 0). In case no feces sample was provided on an ambulant visit, this visit was neglected for interpolation. A similar approach has been described earlier. The concentration/amount for each component of each sample/time-point was calculated by multiplying the total radioactivity concentration/amount of each sample with %-area of each component obtained after off-line HPLC separation. The amount of radioactivity in urine and feces at late time-points where no component was detected was distributed in the same percentage to the component (s) present at the time-point before.
# Compartment-free analysis was performed employing WinNonlin software (version 5.3, Pharsight Certara, Princton, NJ, USA).
# Pharmacokinetic parameters were evaluated by descriptive data analysis without formal hypothesis testing by calculating either medians (t max, t last) or geometric means and %CV (remaining parameters). Excretion data (urine, feces, total) were evaluated by arithmetic means.
# [2] = format: in vivo, human
# Protocol: as §1, §2, §3
# After pooling and homogenization of urine and feces samples per time interval, aliquots were stored at −20 °C for total radioactivity determination and at −70°C for metabolic profiling (including blood/plasma samples). For determination of total radioactivity, samples were analyzed with a Perkin Elmer Tri-Carb™ 3100 TR liquid scintillation analyzer (Perkin Elmer, Waltham, MA, USA) with quenching correction. For metabolite profiling, plasma samples were treated with a mixture of acetonitrile (ACN) +0.2% acetic acid, after shaking and centrifugation, the supernatant was concentrated. Urine and feces samples were treated with solid-phase extraction (Waters HLB 30 mg, 1 mL, Waters, Milford, MA, USA) and liquid–liquid extraction (ACN + 0.2% trifluoroacetic acid/water, 80:20 volume/volume), respectively. Subsequently samples from plasma, urine and feces were analyzed by HPLC-LSC on Synergi Polar 4 µm 150 × 2 mm (Phenomenex, Aschaffenburg, Germany) with off-line radioactivity detection by Microbeta^2™ Plus liquid scintillation counter with Ultima Flo™ AP scintillation fluid (Packard Instrument BV, Groningen, The Netherlands).
# as §4, with “interpolation.” for “interpolation. A similar approach has been described earlier. The concentration/amount for each component of each sample/time-point was calculated by multiplying the total radioactivity concentration/amount of each sample with %-area of each component obtained after off-line HPLC separation. The amount of radioactivity in urine and feces at late time-points where no component was detected was distributed in the same percentage to the component (s) present at the time-point before.”
# [3] = system: plasma protein; conditions: reversible; cited from earlier work
# [4] = system: P-glycoprotein (P-gp); parameters: method as in Bayer AG, data on file; conditions: in vitro; ref Bayer AG, data on file; cited from earlier work
# [5] = system: breast Cancer Resistance Protein (BCRP); parameters: method as in Bayer AG, data on file; conditions: in vitro; ref Bayer AG, data on file; cited from earlier work
# [6] = system: PI3K-α; conditions: cited from earlier work
# [7] = system: PI3K-δ; conditions: cited from earlier work
# [8] = system: primary malignant B cell lines; conditions: cited from earlier work
# [9] = whole blood, range of 6 subjects
smiles,measurement,setting,value
"COc1c(OCCCN2CCOCC2)ccc2c1N=C(NC(=O)c1cnc(N)nc1)N1CCN=C21 [Copanlisib, copanlisib]","AUC (0–t last) of total radioactivity (%) covered by the component, average",[1],about 84%
same,"CL (total body clearance), geometric mean (%CV)",[1]; iv,24.8 (41.3%) L/h
same,"t ½ (terminal half-life), geometric mean (%CV)",[1]; iv,52.1 (20.9%) h
same,"t ½ (terminal half-life), range",[1]; iv,40.4 to 67.5 h
same,clearance,"[1]; iv, geometric mean (%CV)",~413 mL/min
same,clearance,"[1]; iv, range",237 to 680 mL/min
same,Vd,"[1]; iv, V z (volume of distribution during terminal phase), geometric mean (%CV)",~1870 L
same,Vd,"[1]; iv, V z, range",1250 to 2450 L
same,Tmax,"[1]; iv, median",1 h
same,Tmax,"[1]; iv, range",0.5 to 1 h
same,half-life,"[1]; iv, geometric mean (%CV)",52 h
same,half-life,"[1]; iv, range",40 to 67 h
same,"Total radioactivity AUC (0–t last) in blood, geometric mean (% CV)",[2]; in vivo,558 (28.8%) ng-Eq·h/mL
same,"Total radioactivity AUC (0–t last) in blood, range",[2]; in vivo,347–756 ng-Eq·h/mL
same,"Total radioactivity AUC (0–t last) in plasma, geometric mean (% CV)",[2]; in vivo,324 (54.1%) ng-Eq·h/mL
same,"Total radioactivity AUC (0–t last) in plasma, range",[2]; in vivo,150–601 ng-Eq·h/mL
same,"Total radioactivity t last in plasma, median",[2]; plasma,60 h
same,"Total radioactivity t max in plasma, median",[2]; plasma,1 h
same,Recovery of radioactivity extractable from plasma,"[2]; plasma extraction, no indication of covalent adduct formation",> 90%
same,"Total radioactivity C max in plasma, geometric mean (% CV)","[2]; plasma, 12 mg copanlisib (2.76 MBq 14C) 1-h infusion",45.6 (26.0%) ng-Eq/mL
same,"Total radioactivity C max in plasma, range","[2]; plasma, range of 6 subjects",32.1–57.6 ng-Eq/mL
same,"Total radioactivity t last in plasma, range","[2]; plasma, range of 6 subjects",24 to 96 h
same,"Total radioactivity t max in plasma, range","[2]; plasma, range of 6 subjects",0.5 to 1 h
same,"Total radioactivity C max in blood, geometric mean (% CV)",[2]; whole blood,83.5 (26.3%) ng-Eq/mL
same,"Total radioactivity t last in blood, median",[2]; whole blood,72 h
same,"Total radioactivity t max in blood, median",[2]; whole blood,1 h
same,"Total radioactivity C max in blood, range",[2]; [9],59.2–114 ng-Eq/mL
same,"Total radioactivity t last in blood, range",[2]; [9],36 to 72 h
same,"Total radioactivity t max in blood, range",[2]; [9],0.5 to 1 h
same,"free fraction (fraction unbound in plasma), plasma protein binding",[3],15.8%
same,Substrate of efflux transporter P-gp,[4],substrate
same,Substrate of efflux transporter BCRP,[5],substrate
same,PI3K-α inhibitory activity,[6],predominant PI3K-α and PI3K-δ inhibitory activity
same,PI3K-δ inhibitory activity,[7],predominant PI3K-α and PI3K-δ inhibitory activity
same,Tumor cell death,[8],induce tumor cell death including apoptosis
